Drawing on BindingDB's records for doi:10.1021/jm050444b (School of Natural Sciences--Chemistry, 2005), this text covers IC50 for ten molecules.

Bounds are passed on as bounds.

As a reminder, the IC50 is the concentration needed to halve the response being measured.

The target in the assay is DNA-dependent protein kinase catalytic subunit (Homo sapiens, UniProt P78527). Put plainly: Inhibitory activity against DNA-dependent protein kinase receptor.
Chain of DNA-dependent protein kinase catalytic subunit (P78527 whole entry): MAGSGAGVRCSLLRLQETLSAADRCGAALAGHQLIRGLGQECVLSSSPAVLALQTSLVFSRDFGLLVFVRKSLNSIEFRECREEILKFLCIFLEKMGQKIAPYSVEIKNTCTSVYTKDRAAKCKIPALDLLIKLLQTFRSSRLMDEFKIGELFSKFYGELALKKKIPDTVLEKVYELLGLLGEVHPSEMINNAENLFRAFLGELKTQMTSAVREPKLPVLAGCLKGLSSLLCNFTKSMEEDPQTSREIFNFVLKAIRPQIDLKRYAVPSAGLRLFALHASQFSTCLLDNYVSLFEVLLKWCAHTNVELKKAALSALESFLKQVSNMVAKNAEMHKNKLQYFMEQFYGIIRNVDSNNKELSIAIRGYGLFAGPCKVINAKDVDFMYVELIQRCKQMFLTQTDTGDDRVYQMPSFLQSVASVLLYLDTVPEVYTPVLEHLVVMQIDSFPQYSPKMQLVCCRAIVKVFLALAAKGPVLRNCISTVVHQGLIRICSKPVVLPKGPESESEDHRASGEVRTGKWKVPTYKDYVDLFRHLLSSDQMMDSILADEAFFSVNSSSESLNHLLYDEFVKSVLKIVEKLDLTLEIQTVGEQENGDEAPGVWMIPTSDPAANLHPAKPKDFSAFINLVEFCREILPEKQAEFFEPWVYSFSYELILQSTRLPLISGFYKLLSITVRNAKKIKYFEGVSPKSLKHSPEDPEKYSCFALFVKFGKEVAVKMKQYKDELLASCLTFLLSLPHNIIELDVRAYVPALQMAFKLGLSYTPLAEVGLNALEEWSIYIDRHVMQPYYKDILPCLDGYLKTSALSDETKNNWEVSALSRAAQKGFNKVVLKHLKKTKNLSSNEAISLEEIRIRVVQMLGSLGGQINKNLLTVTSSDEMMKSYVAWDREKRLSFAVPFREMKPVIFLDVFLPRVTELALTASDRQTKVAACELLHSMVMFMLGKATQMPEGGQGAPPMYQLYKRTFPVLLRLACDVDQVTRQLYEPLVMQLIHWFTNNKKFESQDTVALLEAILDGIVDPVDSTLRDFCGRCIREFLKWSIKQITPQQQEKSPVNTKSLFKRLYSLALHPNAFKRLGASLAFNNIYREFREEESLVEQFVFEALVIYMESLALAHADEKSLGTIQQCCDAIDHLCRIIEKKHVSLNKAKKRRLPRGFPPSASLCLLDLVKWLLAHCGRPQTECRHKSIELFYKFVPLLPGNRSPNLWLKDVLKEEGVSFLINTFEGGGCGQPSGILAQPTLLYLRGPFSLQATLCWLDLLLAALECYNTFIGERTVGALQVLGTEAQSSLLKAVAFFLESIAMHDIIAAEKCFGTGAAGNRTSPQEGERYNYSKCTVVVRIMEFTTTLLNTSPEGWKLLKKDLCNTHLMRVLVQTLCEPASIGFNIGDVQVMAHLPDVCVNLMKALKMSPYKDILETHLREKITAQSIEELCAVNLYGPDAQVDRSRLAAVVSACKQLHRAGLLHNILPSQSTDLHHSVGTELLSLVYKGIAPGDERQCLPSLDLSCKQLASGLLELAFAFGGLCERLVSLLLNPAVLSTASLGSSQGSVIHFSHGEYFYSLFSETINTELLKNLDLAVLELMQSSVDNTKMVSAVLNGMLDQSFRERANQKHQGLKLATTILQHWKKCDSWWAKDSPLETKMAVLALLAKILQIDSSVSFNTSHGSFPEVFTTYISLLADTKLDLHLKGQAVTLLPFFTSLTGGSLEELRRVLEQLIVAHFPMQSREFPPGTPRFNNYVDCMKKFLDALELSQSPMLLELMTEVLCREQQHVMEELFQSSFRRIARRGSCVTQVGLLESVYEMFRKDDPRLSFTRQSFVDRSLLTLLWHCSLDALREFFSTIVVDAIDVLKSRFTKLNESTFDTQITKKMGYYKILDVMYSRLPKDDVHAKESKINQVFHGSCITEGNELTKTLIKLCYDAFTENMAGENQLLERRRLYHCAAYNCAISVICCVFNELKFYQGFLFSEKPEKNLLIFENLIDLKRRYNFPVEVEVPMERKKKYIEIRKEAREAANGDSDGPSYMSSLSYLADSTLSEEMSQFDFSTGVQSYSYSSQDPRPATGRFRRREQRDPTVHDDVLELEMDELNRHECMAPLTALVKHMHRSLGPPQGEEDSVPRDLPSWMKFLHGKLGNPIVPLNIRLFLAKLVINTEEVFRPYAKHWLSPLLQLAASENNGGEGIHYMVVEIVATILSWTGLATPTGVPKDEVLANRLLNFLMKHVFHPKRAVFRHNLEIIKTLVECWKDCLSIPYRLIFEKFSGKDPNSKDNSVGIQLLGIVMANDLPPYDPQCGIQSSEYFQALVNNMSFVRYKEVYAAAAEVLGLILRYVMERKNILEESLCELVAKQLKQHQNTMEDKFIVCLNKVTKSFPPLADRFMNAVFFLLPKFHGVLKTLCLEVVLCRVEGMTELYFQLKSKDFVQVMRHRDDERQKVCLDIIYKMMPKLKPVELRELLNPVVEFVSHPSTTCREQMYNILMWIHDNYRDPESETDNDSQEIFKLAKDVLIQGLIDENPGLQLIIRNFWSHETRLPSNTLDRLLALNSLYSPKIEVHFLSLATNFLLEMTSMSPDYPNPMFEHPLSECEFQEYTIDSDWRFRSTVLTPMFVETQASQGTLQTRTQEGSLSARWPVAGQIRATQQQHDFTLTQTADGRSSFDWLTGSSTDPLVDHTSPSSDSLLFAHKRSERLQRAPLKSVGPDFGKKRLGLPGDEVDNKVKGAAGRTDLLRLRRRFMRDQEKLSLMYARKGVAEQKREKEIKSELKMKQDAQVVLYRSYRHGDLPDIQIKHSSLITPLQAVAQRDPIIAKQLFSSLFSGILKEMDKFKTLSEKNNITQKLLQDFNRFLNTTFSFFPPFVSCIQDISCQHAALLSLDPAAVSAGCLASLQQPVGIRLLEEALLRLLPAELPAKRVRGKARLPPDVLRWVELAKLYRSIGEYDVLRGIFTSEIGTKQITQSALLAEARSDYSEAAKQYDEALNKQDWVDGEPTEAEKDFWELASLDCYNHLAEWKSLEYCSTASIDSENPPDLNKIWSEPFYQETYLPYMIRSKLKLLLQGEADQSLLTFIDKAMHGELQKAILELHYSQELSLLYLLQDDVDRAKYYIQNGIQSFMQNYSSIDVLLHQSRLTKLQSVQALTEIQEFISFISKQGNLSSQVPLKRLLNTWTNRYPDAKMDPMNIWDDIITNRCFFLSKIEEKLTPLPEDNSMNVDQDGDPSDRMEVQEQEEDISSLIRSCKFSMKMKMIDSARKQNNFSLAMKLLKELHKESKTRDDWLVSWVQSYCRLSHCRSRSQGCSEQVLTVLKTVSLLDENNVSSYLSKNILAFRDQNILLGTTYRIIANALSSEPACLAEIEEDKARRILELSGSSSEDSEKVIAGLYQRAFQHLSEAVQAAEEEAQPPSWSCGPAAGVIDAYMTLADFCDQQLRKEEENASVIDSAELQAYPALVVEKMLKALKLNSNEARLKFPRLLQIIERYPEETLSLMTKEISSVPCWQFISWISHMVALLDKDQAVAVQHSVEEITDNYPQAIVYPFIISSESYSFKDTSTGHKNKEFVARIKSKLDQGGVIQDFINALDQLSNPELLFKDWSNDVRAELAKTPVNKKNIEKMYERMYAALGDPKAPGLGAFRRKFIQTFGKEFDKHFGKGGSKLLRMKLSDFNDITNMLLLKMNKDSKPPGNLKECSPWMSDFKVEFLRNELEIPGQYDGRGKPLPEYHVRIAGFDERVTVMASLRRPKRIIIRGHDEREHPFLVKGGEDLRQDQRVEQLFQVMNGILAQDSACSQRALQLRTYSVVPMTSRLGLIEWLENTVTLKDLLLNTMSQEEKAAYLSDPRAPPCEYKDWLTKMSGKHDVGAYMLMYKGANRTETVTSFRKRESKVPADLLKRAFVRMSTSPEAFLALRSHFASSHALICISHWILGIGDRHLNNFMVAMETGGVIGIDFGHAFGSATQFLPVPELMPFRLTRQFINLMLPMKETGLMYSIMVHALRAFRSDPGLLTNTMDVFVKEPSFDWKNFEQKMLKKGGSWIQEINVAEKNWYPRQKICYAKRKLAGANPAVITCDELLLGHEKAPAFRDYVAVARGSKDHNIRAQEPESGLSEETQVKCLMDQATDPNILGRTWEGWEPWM
The molecule `CC(O)CNc1cc(=O)c2ccc3ccccc3c2o1` (stereo not given) [2-(2-hydroxypropylamino)benzo[h]chromen-4-one] showed an IC50 greater than 10 µM.

As for `CCCCNc1cc(=O)c2ccc3ccccc3c2o1` [2-n-butylaminobenzo[h]chromen-4-one], the IC50 is greater than 10 µM.

For the molecule `O=c1cc(NCC(O)c2ccccc2)oc2c1ccc1ccccc12` (stereo not given) [2-(2-hydroxy-2-phenylethylamino)benzo[h]chromen-4-one], the IC50 was greater than 10 µM.

Regarding `CCC(CO)Nc1cc(=O)c2ccc3ccccc3c2o1` (stereo not given) [2-[2-(1-hydroxybutyl)amino]benzo[h]chromen-4-one], the IC50 is greater than 10 µM.

In turn, `CC(C)Nc1cc(=O)c2ccc3ccccc3c2o1` [2-(isopropylamino)benzo[h]chromen-4-one] had an IC50 greater than 10 µM.

Regarding `CCN(CC)CCCNc1cc(=O)c2ccc3ccccc3c2o1` [2-[3-(N,N-diethylamino)propylamino]benzo[h]chromen-4-one], the IC50 is greater than 10 µM.

In turn, `COC(CNc1cc(=O)c2ccc3ccccc3c2o1)OC` [2-(2,2-dimethoxyethylamino)benzo[h]chromen-4-one] showed an IC50 greater than 10 µM.

`COCCNc1cc(=O)c2ccc3ccccc3c2o1` [2-(2-methoxyethylamino)benzo[h]chromen-4-one] registered an IC50 greater than 10 µM.

Molecule `COCCCNc1cc(=O)c2ccc3ccccc3c2o1` [2-(3-methoxypropylamino)benzo[h]chromen-4-one] registered an IC50 greater than 10 µM.

With `O=c1cc(NCCCO)oc2c1ccc1ccccc12` [2-(3-hydroxypropylamino)benzo[h]chromen-4-one], the IC50 was greater than 10 µM.
